According to patent US10350204B2, “Methods for treating cognitive deficits associated with fragile X syndrome” (Wisconsin Alumni Research Foundation, priority 2015, dated 2019):

Tests used:
Type in all cases: cell-based, mouse
[1] = system: Fmr1 KO and wildtype NPCs; test: Western blot analyses of p-AKT, p-MDM2, MDM2 and P53 in NPCs
Procedure: NPCs were isolated from the dentate gyms of 8 to 10-week-old male Fmr1 KO mice and wild-type (wildtype) littermate controls based on our published methods (12, 64). Independently isolated cells serve as biological replicates. Proliferation and differentiation of NPCs was analyzed as described (11, 12, 61). We used only early passage cells (between passage 4 and 10) and only the same passage numbers of wildtype and Fmr1 KO cells. For each experiment, triplicate wells of cells were analyzed, and results were averaged as one data point (n=1). At least 3 independent biological replicates were used (n=3) for statistical analyses.
Protein samples were separated on SDS-PAGE gels (Bio-Rad), transferred to PVDF membranes (Millipore), and incubated with primary antibodies. After incubation with fluorescence-labeled secondary antibodies (Li—CoR), the membranes were imaged using Li—CoR and quantification was performed using ImageJ software. At least n=3 independent blots were used for statistical analysis.
For loading controls, membranes were probed with the mouse antibody against GAPDH.

[2] = system: Fmr1 KO and wildtype NPCs; test: Differentiation assay of cultured NPCs (Tuj1 neurons, GFAP astrocytes); conditions: 4 days
Procedure: Proliferation and differentiation of aNPCs were analyzed using our published methods (Guo et al., Nature Med. (2011); Guo et al., Neuron 70, 924-938 (2011); Luo et al., PLoS Genet 6 (2010); Liu et al., Cell Stem Cell 6 (2010)). We used only early passage cells (between passage 4 and 10) and only the same passage numbers of wild type (WT) and Fmr1 KO cells. For each experiment, triplicate wells of cells were analyzed, and results were averaged as one data point (n=1). At least 3 independent experiments (n=3) were performed and used for statistical analyses for each analysis. […] For the differentiation assay, at 24 h post-plating, cells were changed into differentiation medium, Neurobasal A, containing 5 μM forskolin (Sigma-Aldrich, F-6886) and 1 μM retinoic acid (Sigma-Aldrich, R-2625) for 4 d, followed by fixation with 4% paraformaldehyde for 30 min, and then washed with Dulbecco's Phosphate Buffered Saline (DPBS), pH 7.4 for 30 min. Immunocytochemistry staining was carried out as described (Guo et al., Nature Med. (2011); Guo et al., Neuron 70, 924-938 (2011); Luo et al., PLoS Genet 6 (2010); Liu et al., Cell Stem Cell 6 (2010)). Briefly, cells were preblocked using DPBS containing 5% normal goat serum (VECTOR, S-1000) and 0.1% Triton X-100 for 30 min, followed by overnight incubation with primary antibodies: mouse anti-Tuj1 (1:1000, Promega, G712A) and rabbit anti-S100β (1:1000, Dako, Z0334).
After washing with Dulbecco s Phosphate Buffered Saline (DPBS), cells were incubated with secondary antibodies that included goat anti-mouse 568 (1:1000, Invitrogen, A11031), goat anti-rabbit 488 (1:1000, Invitrogen, A11008) followed by counterstaining with the fluorescent nuclear dye 4′,6-diamidino-2′-phenylindole dihydrochloride (DAPI, Sigma-Aldrich, B2261). […] (VECTOR, H-1000), the numbers of Tuj1, GFAP-positive cells were quantified using an Olympus BX51 microscope equipped with a MicroFire digital camera (Optronics) and a motorized stage using a 20× objective lens. The quantification was carried out using an unbiased stereology method with assistance from StereoInvestigator software (MBF Biosciences). The percentage of differentiated cells was calculated as the number of Tuj1- or GFAP-labeled cells divided by the total number of cells stained with DAPI.

[3] = system: Fmr1 KO and wildtype NPCs; test: BrdU proliferation assay of cultured NPCs
Procedure: We used only early passage cells (between passage 4 and 10) and only the same passage numbers of wild type (WT) and Fmr1 KO cells. For each experiment, triplicate wells of cells were analyzed, and results were averaged as one data point (n=1). At least 3 independent experiments (n=3) were performed and used for statistical analyses for each analysis. To study cell proliferation, we dissociated neural stem cells with trypsin and plated them on poly-L-ornithine and laminin-coated 24 well plate (Scientific fisher, 87721) at a density of 100,000 cells per well in proliferation medium. At 20 h post-plating, 5 μM 5-bromo-2.′-deoxyuridine (BrdU, Sigma-Aldrich) was added into the culture medium for 6 h. NPCs were then washed with PBS and fixed with 4% paraformaldehyde for 30 min at room temperature, followed by immunohistochemical analysis. To detect BrdU incorporation, fixed cells were pretreated with 1M HCl for 30 min at 37° C., and then washed with borate buffer, pH 8.5, for 30 min. We then followed our standard immunohistochemistry protocol^10. BrdU incorporation assay was determined using an Operetta high content imaging system (PerkinElmer, Inc) and Harmony quantification software (PerkinElmer, Inc). The percentage of proliferating cells was defined as the number of BrdU-labeled cells divided by total DAPI-positive cells.
For proliferation assay in vitro, 1 μM MK2206 (Selleckchem, S1078) (AKT phosphorylation inhibitor), or 2 μM Nutlin-3 (Nt3, Selleckchem, 51061) (Mdm2 inhibitor), or 1 μM RG7112 (Selleckchem, S7030) (Mdm2 inhibitor) or YH239-EE (Selleckchem 57489) (4 μM) (Mdm2 inhibitor) was added to proliferating NPCs at 6 hours post-plating. Cells were then pulse labeled 18 hours later with 5 μM 5-bromo-2′-deoxyuridine (BrdU, Sigma-Aldrich, B5002) and incubated for 6 hours in the presence of inhibitor, followed by fixation, staining, and quantification.

[4] = system: Fmr1 KO and wildtype NPCs; test: Western blot analyses of p-AKT, p-MDM2, MDM2 and P53 in NPCs; conditions: total AKT as loading control
[5] = Fmr1 KO NPCs, 1 μM MK2206, 2 μM Nutlin-3, 1 μM RG7112
[6] = wildtype NPCs, 1 μM MK2206, 2 μM Nutlin-3
[7] = Fmr1 KO NPCs, 1 μM MK2206, 2 μM Nutlin-3, 1 μM RG7112, 4 μM YH239-EE

Row | Compound | P53 expression ([1]; Fmr1 KO NPCs) | p-MDM2 (Ser166) ([1]; Fmr1 KO NPCs) | total MDM2 ([1]; Fmr1 KO NPCs) | p-MDM2 (Ser166) ([1]; wildtype NPCs) | total MDM2 ([1]; wildtype NPCs) | astroglial differentiation (GFAP+) [2, 5] | neuronal differentiation (Tuj1+) [2, 5] | astroglial differentiation (GFAP+) [2, 6] | neuronal differentiation (Tuj1+) [2, 6] | cell proliferation (BrdU+ cells) [3, 7] | cell proliferation (BrdU+ cells) [3, 6] | p-AKT ([4]; Fmr1 KO NPCs) | p-AKT ([4]; wildtype NPCs)
1 | NC1(c2ccc(-c3nc4ccn5c(=O)[nH]nc5c4cc3-c3ccccc3)cc2)CCC1 [MK-2206] | enhanced P53 expression | reduced p-MDM2 | without affecting total MDM2 | reduced p-MDM2 | without affecting total MDM2 | decreased | increased neuronal differentiation | decreased | increased neuronal differentiation | decreased cell proliferation | decreased cell proliferation | reduced p-AKT | reduced p-AKT
2 | CCOc1cc(C(C)(C)C)ccc1C1=N[C@@](C)(c2ccc(Cl)cc2)[C@@](C)(c2ccc(Cl)cc2)N1C(=O)N1CCN(CCCS(C)(=O)=O)CC1 [RG7112] | – | – | – | – | – | rescued astroglial differentiation phenotypes | rescued neuronal differentiation phenotypes | – | – | rescued the cell proliferation phenotype | – | – | –
3 | CCOC(=O)c1[nH]c2cc(Cl)ccc2c1C(C(=O)NC(C)(C)C)N(C=O)Cc1ccc(Cl)cc1 (centres unmarked) [YH239-EE] | – | – | – | – | – | – | – | – | – | rescued the cell proliferation phenotype | – | – | –
